3 compounds from patent publication US10975075B2, “Imidazolonylquinolines and the use thereof as ATM kinase inhibitors” (priority 2015, dated 2021) can be followed below.

This experiment has as its system phosphorylation of CHK2 (phospho-Thr68) in HCT116 cells. The experiment in a line: Cellular pCHK2 assay (bleomycin-induced phosphorylation of CHK2 phospho-Thr68, immunofluorescence high content). Conditions: 10 μM bleomycin, 4 h. Format: cell-based, human. From the text: For the identification of substances which inhibit the phosphorylation of the protein kinase CHK2 at the amino acid threonine 68, an immunofluorescence-based “high content” analysis assay was used in HCT116 cells.
In vitro cell-based immunofluorescence assay for the identification of inhibitors of bleomycin-induced phosphorylation of CHK2 (phospho-Thr68) in the human colon carcinoma cell line HCT116:
HCT116 cells are sown out in a defined cell density in 384-well plates in culture medium (DMEM high glucose, 2 mM GlutaMax, 1 mM Na pyruvate, 10% FCS) and incubated overnight at 37° C. and 10% of CO2. On the following day, the test substances are added in a defined concentration range (1 nM to 30 μM) in combination with 10 μM bleomycin, where the concentration of the solvent DMSO is kept constant at 0.5%. […] Parallel staining of DNA with propidium iodide enables determination of the cell count. The pCHK2 signal is detected using a high-content imager (Molecular Devices IMX Ultra) and automatic image analysis using the MetaXpress software belonging to the instrument. The number of cell nuclei which have a pCHK2 signal above a defined background is determined.

Take `COc1cc2ncc3c(c2cc1-c1cn[nH]c1)n(-c1ccncc1C)c(=O)n3C` [Compound Example 19, 7-Methoxy-3-methyl-1-(3-methylpyridin-4-yl)-8-(1 H-pyrazol-4-yl)-1,3-dihydro-imidazo[4,5-c]quinolin-2-one]: the concentration for half-maximal inhibition (IC50) – broadly, the midpoint of a concentration-inhibition curve – is below 200 nM.

Consider `COc1cc2ncc3c(c2cc1-c1cnn(C)c1)n(-c1cnn(C)c1)c(=O)n3C` [Compound Example 23, 7-Methoxy-3-methyl-1,8-bis-(1-methyl-1H-pyrazol-4-yl)-1,3-dihydroimidazo[4,5-c] quinolin-2-one], for which the concentration for half-maximal inhibition (IC50) is below 200 nM.

With `COc1cc2ncc3c(c2cc1-c1cnn(C)c1)n(-c1c(C)n[nH]c1C)c(=O)n3C` [Example 118, 1-(3,5-Dimethyl-1H-pyrazol-4-yl)-7-methoxy-3-methyl-8-(1-methyl-1H-pyrazol-4-yl)-1,3-dihydroimidazo[4,5-c]-quinolin-2-one], the IC50 fell in the range of 200 to 1000 nM.
